From patent US9480677B2, “Enantiomers of spiro-oxindole compounds and their uses as therapeutic agents” (Xenon Pharmaceuticals Inc., priority 2009, dated 2016)
Values after ≈ are worked out from the molar mass of the structure shown.

Legend:
[1] = test system: local skin toxicity/irritancy
[2] = Phase 1 clinical trial of topical ointment: systemic pharmacokinetics; format: in vivo, human
hNav1.7 = hNav1.7 (Homo sapiens, UniProt Q15858); details: (S)- versus (R)-enantiomer
dental pain = assay: Clinical trial for dental pain after extraction of impacted third molar teeth; format: in vivo; details: single 500 mg dose, human subjects
Experimental: The purpose of this clinical trial was to compare the safety and efficacy (onset, duration of relief, and overall efficacy) of a single 500 mg dose of the (S)-enantiomer of the invention versus placebo dose for relief of pain following extraction of impacted third molar teeth.
Sixty-one subjects were enrolled in the study. The mean age for the subjects was 20.4 years, and all subjects were male. The majority of subjects were Caucasians (95.1%).
The severity and relief of the pain was measured using an 11-point Pain Intensity Numerical Rating Scale (graded from 0=no pain at all to 10=worst pain imaginable) (PINRS) and a 5-point Categorical Pain Relief Scale (REL). Subjects completed the PINRS after surgery, but before the administration of (S)-enantiomer of the invention. Efficacy variables were derived from the REL and PINRS scores and included total pain relief (TOTPAR), pain intensity difference (PID), and summed pain intensity difference (SPID) and evaluated at time points of 4, 6, 8, and 12 hours after administration of the (S)-enantiomer of the invention.

[3] = Solubility in pharmaceutically acceptable excipients; format: physicochemical
Description: Thus, the (S)-enantiomer can be formulated in a fewer number of dosage units than the racemate. This property facilitates dosing patients at a higher level if needed to achieve efficacy.

hNav1.7, sequence (Q15858 whole entry): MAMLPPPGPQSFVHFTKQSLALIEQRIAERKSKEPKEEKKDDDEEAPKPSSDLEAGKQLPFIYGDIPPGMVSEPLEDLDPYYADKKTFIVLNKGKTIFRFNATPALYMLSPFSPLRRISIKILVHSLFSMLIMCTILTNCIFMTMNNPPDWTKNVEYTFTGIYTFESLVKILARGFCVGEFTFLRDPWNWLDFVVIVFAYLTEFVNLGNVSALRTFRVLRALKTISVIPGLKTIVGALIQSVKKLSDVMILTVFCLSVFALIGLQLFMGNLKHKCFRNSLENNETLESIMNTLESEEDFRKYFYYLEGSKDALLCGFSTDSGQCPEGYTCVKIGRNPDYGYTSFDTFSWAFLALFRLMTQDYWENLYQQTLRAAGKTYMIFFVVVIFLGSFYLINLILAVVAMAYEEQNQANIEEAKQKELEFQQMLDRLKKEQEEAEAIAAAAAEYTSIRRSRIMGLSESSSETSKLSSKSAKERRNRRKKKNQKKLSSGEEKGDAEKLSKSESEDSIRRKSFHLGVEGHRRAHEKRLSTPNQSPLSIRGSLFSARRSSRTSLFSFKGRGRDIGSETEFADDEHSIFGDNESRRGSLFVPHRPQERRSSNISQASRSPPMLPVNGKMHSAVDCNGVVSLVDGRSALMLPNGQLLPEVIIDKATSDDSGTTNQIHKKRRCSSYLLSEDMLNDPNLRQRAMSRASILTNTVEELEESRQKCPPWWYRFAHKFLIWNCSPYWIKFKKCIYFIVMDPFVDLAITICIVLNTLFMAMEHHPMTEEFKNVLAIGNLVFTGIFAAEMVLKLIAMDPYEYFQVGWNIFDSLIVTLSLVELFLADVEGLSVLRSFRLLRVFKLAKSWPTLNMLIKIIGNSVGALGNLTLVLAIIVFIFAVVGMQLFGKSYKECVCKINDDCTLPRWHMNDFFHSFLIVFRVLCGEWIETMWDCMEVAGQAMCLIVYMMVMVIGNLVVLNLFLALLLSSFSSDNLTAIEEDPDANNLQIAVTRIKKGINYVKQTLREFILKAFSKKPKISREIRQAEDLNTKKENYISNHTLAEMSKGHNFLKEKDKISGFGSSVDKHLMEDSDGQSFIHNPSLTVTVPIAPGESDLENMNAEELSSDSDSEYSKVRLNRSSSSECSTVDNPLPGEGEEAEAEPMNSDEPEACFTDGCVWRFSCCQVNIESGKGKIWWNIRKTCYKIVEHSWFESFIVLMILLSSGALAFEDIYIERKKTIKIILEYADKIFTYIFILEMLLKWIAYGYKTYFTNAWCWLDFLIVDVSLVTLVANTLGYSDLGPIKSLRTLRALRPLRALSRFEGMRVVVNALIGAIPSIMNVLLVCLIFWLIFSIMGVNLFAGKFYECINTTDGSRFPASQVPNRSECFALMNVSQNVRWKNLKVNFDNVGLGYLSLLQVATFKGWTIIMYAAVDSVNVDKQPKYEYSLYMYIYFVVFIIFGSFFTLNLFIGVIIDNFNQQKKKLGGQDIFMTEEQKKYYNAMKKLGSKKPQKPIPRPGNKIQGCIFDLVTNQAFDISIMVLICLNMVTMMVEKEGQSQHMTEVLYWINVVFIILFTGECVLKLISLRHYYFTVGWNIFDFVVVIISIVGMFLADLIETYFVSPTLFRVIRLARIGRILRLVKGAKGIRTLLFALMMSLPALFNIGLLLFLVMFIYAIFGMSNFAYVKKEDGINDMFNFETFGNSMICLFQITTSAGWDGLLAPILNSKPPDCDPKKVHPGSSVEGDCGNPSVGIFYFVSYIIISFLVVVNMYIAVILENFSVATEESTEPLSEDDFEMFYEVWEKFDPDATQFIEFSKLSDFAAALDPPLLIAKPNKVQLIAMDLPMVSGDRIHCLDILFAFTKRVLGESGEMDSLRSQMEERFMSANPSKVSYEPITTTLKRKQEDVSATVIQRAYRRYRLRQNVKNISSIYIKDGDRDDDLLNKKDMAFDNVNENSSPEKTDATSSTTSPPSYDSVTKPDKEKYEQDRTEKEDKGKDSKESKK

With `O=C1N(Cc2ccc(C(F)(F)F)o2)c2ccccc2[C@]12COc1cc3c(cc12)OCO3` [(I-S), (S)-1′-{[5-(trifluoromethyl)furan-2-yl]methyl}spiro[furo[2,3-f][1,3]benzodioxole-7,3′-indol]-2′(1′H)-one] the “Serious Adverse Events (SAEs) or deaths” value ([1]; 4% and 8% (w/w) ointment daily for 21 days, healthy subjects) was “No Serious Adverse Events (SAEs) or deaths were reported”, the “cumulative irritation scores versus placebo ointments and negative control (0.9% saline)” value ([1]; human, in vivo) was “No difference was observed” and the “electrocardiography: pulse rate, quiescent resting state, QTc intervals” value ([1]; human, in vivo) was “did not demonstrate clinically significant changes”. For the same compound, the “severity of Adverse Events (AEs)” value ([1]; human, in vivo) was “mild or moderate in severity”, the “vital signs, physical examinations, laboratory assessments” value ([1]; human, in vivo) was “no clinically significant changes from baseline” and the “skin irritation score, maximum” value ([1]; human, in vivo, 21 days) was at most 3. For the same compound, the concentrations in plasma ([2]; below LLOQ in most samples (489 out of 546=~90%)) was under 0.1 ng/mL, the concentration at 22 day ([2]; human, plasma, Day 22, read-out: highest level observed in plasma in one subject during the dosing period) was 0.994 ng/mL and the “inhibition potency against hNav1.7 compared to the (R)-enantiomer” value (hNav1.7) was over 1000 fold. The onset of action (dental pain) was “slow onset of action”, the “pain relief compared to placebo” value (dental pain) was “higher” and the “primary and all secondary endpoints (TOTPAR, PID, SPID) versus placebo” value (dental pain) was “consistent analgesic trend”. The “statistical significance from the placebo” value (dental pain) was “not achieved”, the solubility ([3]; Ethanol, organic solvent or mixture) was 36.4 mg/mL (≈ 84.8 mM) and the solubility ([3]; PEG 400, organic solvent or mixture) was over 55 mg/mL. For the same compound, the solubility ([3]; Propylene glycol, organic solvent or mixture) was 9.8 mg/mL (≈ 22.8 mM), the solubility ([3]; oil or lipid, Capryol ® 90) was 96 mg/mL (≈ 224 mM) and the solubility ([3]; oil or lipid, Labrasol ®) was 231 mg/mL (≈ 538 mM). The solubility ([3]; oil or lipid, Labrasol ®/Capryol ® 90 60/40) was 191 mg/mL (≈ 445 mM), the solubility ([3]; organic solvent or mixture, Labrasol ®/PEG 400 60/40) was 182 mg/mL (≈ 424 mM) and the solubility ([3]; organic solvent or mixture, Labrasol ®/Transcutol ® 60/40) was 186 mg/mL (≈ 433 mM). It also gave a solubility ([3]; organic solvent or mixture, Tween ® 80) of over 123 mg/mL.
